Here are results for 2 compounds from patent publication US7008957B2, “Bicyclic cyanoheterocycles, process for their preparation and their use as medicaments” (Sanofi-Aventis Deutschland GmbH, priority 2003, dated 2006).

A word on the melting point: it is the temperature of the solid-liquid transition.

On to `N#C[C@@H]1CS[C@H]2C[C@](N)(Cc3ccccc3)C(=O)N12.O=C(O)C(F)(F)F`, for which the melting point came out at 209 °C. In the case of `N#C[C@@H]1CS[C@@H]2C[C@@H](N)C(=O)N12.O=C(O)C(F)(F)F` it was 173.5 °C.
